Values quoted from earlier work in patent US12708655B2, “Botanicals as WNT/beta-catenin activators, molecular pathway regulators, tissue regenerators and health biomarker regulators” (Arbor Life Holdings, Ltd., priority 2020, dated 2026).

How the values were obtained:
[1] = compounds found in Eclipta; NA = Not Applicable; cited from earlier work
[2] = compounds found in Eclipta; NA = Not Applicable; cited from earlier work; remark: listed apart in the source

Echinocystic acid
Anticancer activity (AC) [1]: YES

O=c1cc(-c2ccc(O)c(O)c2)oc2cc(O)cc(O)c12 [Luteolin]
Anticancer activity (AC) [1]: YES | Antioxidant activity (AO) [2]: YES

C[C@@H]1O[C@@H](Oc2c(-c3ccc(O)c(O)c3)oc3cc(O)cc(O)c3c2=O)[C@H](O)[C@H](O)[C@H]1O [Quercetin-3-rhamnoside]
Anticancer activity (AC) [1]: YES | Antioxidant activity (AO) [2]: YES

Demethylwedelolactone 7-glucoside
Anticancer activity (AC) [1]: YES | Antioxidant activity (AO) [2]: YES

O=C(O)c1cccnc1 [Nicotinic acid]
Anticancer activity (AC) [1]: YES | Antioxidant activity (AO) [2]: YES

CC1(C)CC[C@]2(C)CC[C@]3(C)C(=CC[C@@H]4[C@@]5(C)CC[C@H](O)C(C)(C)[C@@H]5CC[C@]43C)[C@@H]2C1 [β-amyrin]
Antioxidant activity (AO) [2]: YES

O=c1cc(-c2ccc(O)c(O)c2)oc2cc(O[C@@H]3O[C@H](CO)[C@@H](O)[C@H](O)[C@H]3O)cc(O)c12 [Cynaroside]
Anticancer activity (AC) [1]: YES | Antioxidant activity (AO) [2]: YES

O=c1cc(-c2ccc(O)cc2)oc2cc(O)cc(O)c12 [Apigenin]
Anticancer activity (AC) [1]: YES | Antioxidant activity (AO) [2]: YES

CC[C@H](CC[C@@H](C)[C@H]1CC[C@H]2[C@@H]3CC=C4C[C@@H](O)CC[C@]4(C)[C@H]3CC[C@]12C)C(C)C [β-sitosterol]
Anticancer activity (AC) [1]: YES | Antioxidant activity (AO) [2]: YES

O=c1cc(-c2ccc(O)cc2)oc2cc(O[C@@H]3O[C@H](CO)[C@@H](O)[C@H](O)[C@H]3O)cc(O)c12 [Apigenin-7-O-glucoside]
Anticancer activity (AC) [1]: YES | Antioxidant activity (AO) [2]: YES

OCc1ccc(-c2ccc(-c3cccs3)s2)s1 [α-terthienyl methanol]
Anticancer activity (AC) [1]: YES

O=c1oc2cc(O)cc(O)c2c2oc3cc(O)c(O)cc3c12 [Demethylwedelolactone]
Anticancer activity (AC) [1]: YES | Antioxidant activity (AO) [2]: YES

COC[C@@H]1Cc2cc(OC)c3c(c2[C@H](c2ccc(OC)c(OC)c2)[C@H]1COC)OCO3 [Hypophyllanthin]
Anticancer activity (AC) [1]: YES | Antioxidant activity (AO) [2]: YES

O=C(O)c1cc(O)c(O)c(O)c1 [Gallic acid]
Anticancer activity (AC) [1]: YES | Antioxidant activity (AO) [2]: YES

CC[C@H](/C=C/[C@@H](C)[C@H]1CC[C@H]2[C@@H]3CC=C4C[C@@H](O)CC[C@]4(C)[C@H]3CC[C@]12C)C(C)C [Stigmasterol]
Anticancer activity (AC) [1]: YES | Antioxidant activity (AO) [2]: YES

COc1cc(O)c2c(c1)oc(=O)c1c3cc(O)c(O)cc3oc21 [Wedelolactone]
Anticancer activity (AC) [1]: YES | Antioxidant activity (AO) [2]: YES

O[C@H]1[C@H](O)[C@@H](O)[C@H](O)[C@@H](O)[C@H]1O [Myoinositol]
Anticancer activity (AC) [1]: YES | Antioxidant activity (AO) [2]: YES

Oc1ccccc1O [Catechol]
Anticancer activity (AC) [1]: YES | Antioxidant activity (AO) [2]: YES

O=C(O)c1ccc(O)cc1 [4-hydroxybenzoic acid]
Anticancer activity (AC) [1]: YES | Antioxidant activity (AO) [2]: YES

O=C(/C=C/c1ccc(O)c(O)c1)c1ccc(O)cc1O [Butein]
Anticancer activity (AC) [1]: YES | Antioxidant activity (AO) [2]: YES

O=C(O)c1ccc(O)c(O)c1 [3,4-dihydroxybenzoic acid]
Anticancer activity (AC) [1]: YES | Antioxidant activity (AO) [2]: YES
